In assay [1] the test system is releasing of lysozomal enzyme from the neutrocytes of rat. Kind of assay: Inhibitory effect against the releasing of lysozomal enzyme from the neutrocytes of rat. Type of assay: cell-based. Conditions: rat neutrocytes 5×10^5 cells/ml; FMLP 10^-6 M + cytocharasin B 5 μg/ml; OD540. On the procedure: Inhibitory effect against the releasing of lysozomal enzyme from the neutrocytes of rat
The neutrocytes of rat were samples from the abdominal cavity of rat 16 hours after the administration of 10 ml of 1% casein solution (physiological saline solution).
Reaction of the releasing of lysozomal enzyme from the neutrocytes of rat was determined by means of the method as described in an article written by T. Matsumoto, K. Takeshige and S. Minakami: Biochemical and Biophysical Research Communications, Vol. 88, No. 3, pp 974-979, (1979).
The neutrocytes being sampled were added to Hank's solution so as to make the concentration thereof as 5×10^5 cells/ml, the test compound of piperazine derivative of the present invention was added thereto to make the test group sample. On the other hand, water was added in place of the piperazine derivative of the present invention to make the control group sample. Each of the test group samples and the control group samples were subjected to pre-incubation at 37° C. for 1 minute.
As to the stimulating agents, 10^-6 M of FMLP (formylmethionyl leucyl phenylalanine) and 5 μg/ml of cytocharasin B solution were added to the test solutions. Thus obtained mixture of the solution was reacted by incubating for 15 minutes. After the incubation, the mixture of the solution was subjected to centrifugation at 2,000 rpm for 10 minutes. The supernatant (0.2 ml) was admixed with 0.5 ml of 0.1 M-acetic acid buffer solution (pH 4.5) in which 0.2 mM of phenolphthalein glucuronic acid was dissolved. Then the resulting mixture of the solution was reacted at 37° C. for 5 hours by incubation. After the reaction, 1N-NaOH solution was added to the reaction mixture so as to make the pH value thereof to pH 8 to 9, and the optical absorbance of both test group samples and control group samples were determined at 540 nm (OD540).
The 50% inhibitory concentration (IC50) values were obtained by calculation as the ratio of OD540 of the test group sample to that of the control group sample.

Assay [2] has as its system superoxide radicals (O2^-) released from the peritoneal macrophage cells of guinea pig. Put plainly: Inhibitory effect against superoxide radicals (O2^-) released from the peritoneal macrophage cells of guinea pig by stimulation (FMLP). Type of assay: cell-based. To be noted: Cavia porcellus, Peritoneal macrophage cell; guinea pig peritoneal macrophages 2×10^6 cells/ml; FMLP 10^-7 M; cytochrome C reduction, OD550. The protocol: Inhibitory effect against superoxide radicals (O2^-) released from the peritoneal macrophage cells of guinea pig by stimulation:
Mineral oil (15 ml)was intraperitoneally administered to a guinea pig, then 96 hours after the administration, the peritoneal macrophage cells were sampled.
Superoxide radicals (O2^-) were determined by means of reduction of cytochrome C method according to the procedure described in an article written by T. Matsumoto, K. Takeshige and S. Minakami: Biochemical and Biophysical Research Communications, Vol. 88, No. 3, pp. 974-979, (1979).
Into 1 ml of 80 μM-cytochrome C solution, the peritoneal macrophage cells were added to make the final concentration of 2×10^6 cells/ml, then each one of the test compounds of the present invention was added thereto to make the test group sample. On the other hand, water was added in place of the test compound of the present invention to make the control group sample. Each of the test group samples and the control group samples were subjected to pre-incubation at 37° C. for 1 minute.
As to the stimulating agent for releasing superoxide radicals (O2^-), FMLP (formylmethionyl leucyl phenylalanine)was added to each one of the test sample solutions and the control group samples to make the final concentration of FMLP to 10^-7 M, then the sample solutions were subjected to additional reaction by incubation for 1 minute.
Difference between the optical absorbances measured at 550 nm (OD550) of both test group samples and control group samples were determined, the 50% inhibitory concentration (IC50) was obtained by calculating as the ratio of OD550 of the test group sample to that of the control group sample.

The subject of assay [3] is releasing of hydrogen peroxide (H2 O2) from the neutrocyte of abdominal cavity of rat. Kind of assay: Inhibitory effect against the releasing of hydrogen peroxide (H2O2) from the neutrocyte of abdominal cavity of rat. Type of assay: cell-based, SD-strain rat. Conditions: rat neutrocytes 10^6 cells/ml; FMLP 2×10^-6 M; 37° C., 1 hour; OD610. On the procedure: Inhibitory effect against the releasing of hydrogen peroxide (H2 O2) from the neutrocyte of abdominal cavity of rat
1%-Casein solution was administered to the abdominal cavity of a SD-strain rat, then 16 hours after the administration, the neutrocytes were obtained by washing the abdominal cavity. Thus obtained neutrocytes were washed with Hank's solution.
In to a reaction mixture consisting of the following ingredients:
______________________________________
HRP (Horse Radish peroxide)
HEPES [N-(2-Hydroxyethyl)pipera-
zine N'-2-ethanesulfonic acid]
Rat neutrocytes 10^6 cells/ml
the test compound was added, then the whole mixture was incubated at 37° C. for 1 hour, and the mixture was subjected to a centrifugal separation at 2,000 rpm for minutes. After the centrifugal separation, 1 ml of the supernatant was sampled and 10 μl of 1N-NaOH aqueous solution was added thereto. Then, the optical absorbance at 610 nm (OD610) of the supernatant was determined by means of using a spectro-photometer.
The IC50 (50% inhibitory concentration) of the test compound was obtained by calculating as the ratio of OD610 of the test group sample to that of the control group sample.

Among the data in US5607934A, “Piperazine derivatives and salts thereof” (Otsuka Pharmaceutical Co., Ltd., priority 1993, dated 1997) are IC50 values, retold here.

The IC50 is the point on the concentration scale where inhibition reaches its midpoint.

In brackets after ≈: the same amount, converted by molar mass. Some results are limits rather than exact numbers.

On to `CC(C)C[C@H]1C(=O)N[C@@H](Cc2cc(Cl)c(O)c(Cl)c2)C(=O)N1O` [Example 20], for which the IC50 came to 30 µg/mL in assay [1] and 30 µg/mL (≈ 83.1 µM) in assay [2]. For the compound `COc1cc(C[C@@H]2NC(=O)[C@H](CC(C)C)N(O)C2=O)cc(OC)c1OC` (relative stereo) [Example 15], in assay [3], the IC50 was less than 3 µg/mL.

Consider `COc1cc(C[C@@H]2NC(=O)[C@@H](CC(C)C)N(O)C2=O)cc(OC)c1OC` (relative stereo) [Example 16], for which the IC50 in assay [2] was 30 µg/mL (≈ 81.9 µM); in assay [3], less than 3 µg/mL. Turning to `CC(C)C[C@@H]1C(=O)N[C@@H](Cc2cn(Cc3ccccc3)cn2)C(=O)N1O` [Example 26], the IC50 was 6 µg/mL (≈ 16.8 µM) in assay [2] and 3 µg/mL (≈ 8.42 µM) in assay [3]. In turn, `CC(C)C[C@H]1C(=O)N[C@@H](Cc2ccccc2)C(=O)N1O` [Example 9, (3S, 6s)-3-benzyl-1-hydroxy-6-isobutylpiperazine-2,5-dione] came in with an IC50 in assay [3] of less than 6 µg/mL. Take `COc1ccc(C[C@@H]2NC(=O)[C@H](CC(C)C)N(O)C2=O)c(OC)c1` (relative stereo) [Example 18]: the 50% inhibitory concentration (IC50) in assay [3] was found to be 5 µg/mL (≈ 14.9 µM). In assay [3], `CC(C)C[C@@H]1C(=O)N[C@@H](Cc2cc(Cl)c(O)c(Cl)c2)C(=O)N1O` [Example 21] came in with a 50% inhibitory concentration (IC50) of 10 µg/mL (≈ 27.7 µM).

For `CSCC[C@@H]1NC(=O)[C@H](Cc2c[nH]c3ccccc23)N(O)C1=O` [Example 51], the IC50 in assay [2] and in assay [3] was 3 µg/mL (≈ 9 µM) throughout.

As to `O=C1[C@@H]2CCCN2C(=O)[C@H](Cc2c[nH]c3ccccc23)N1O` [Example 64], the half-inhibitory concentration (IC50) in assay [3] is less than 3 µg/mL. With `CC(C)C[C@@H]1NC(=O)[C@H](Cc2c[nH]c3ccccc23)N(O)C1=O` [Example 47, (3S,6S)-1-Hydroxy-6-(3-indolylmethyl)-3-isobutylpiperazine-2,5-dione], the IC50 in assay [2] turned out to be 10 µg/mL (≈ 31.7 µM).

`CC(C)C[C@@H]1NC(=O)[C@@H](Cc2c[nH]c3ccccc23)N(O)C1=O` [Example 48, (3S, 6R)-1-Hydroxy-6-(3-indolylmethyl)-3-isobutylpiperazine-2,5-dione]: the concentration for half-maximal inhibition (IC50) in assay [3] was less than 3 µg/mL. Regarding `CSCC[C@@H]1NC(=O)[C@@H](Cc2c[nH]c3ccccc23)N(O)C1=O` [Example 52], in assay [2], the half-inhibitory concentration (IC50) was 6 µg/mL (≈ 18 µM). In the case of `O=C1N[C@@H](Cc2ccccc2)C(=O)N(O)[C@H]1Cc1c[nH]c2ccccc12` [Example 49], the IC50 in assay [2] was 10 µg/mL (≈ 28.6 µM); in assay [3], less than 3 µg/mL. `COc1ccc(C[C@@H]2NC(=O)[C@@H](CC(C)C)N(O)C2=O)c(OC)c1` (relative stereo) [Example 19]: the IC50 in assay [2] turned out to be 30 µg/mL (≈ 89.2 µM); in assay [3], 5 µg/mL (≈ 14.9 µM). For `O=C1N[C@@H](Cc2ccc(O)cc2)C(=O)N(O)[C@H]1Cc1c[nH]c2ccccc12` [Example 60], the half-inhibitory concentration (IC50) in assay [2] was 10 µg/mL (≈ 27.4 µM); in assay [3] it was 6 µg/mL (≈ 16.4 µM).

Consider `CC(C)C[C@@H]1C(=O)N[C@@H](Cc2ccccc2)C(=O)N1O` [Example 10, (3S,6R)-3-Benzyl-1-hydroxy-6-isobutylpiperazine-2,5-dione], for which the IC50 in assay [2] worked out at 18 µg/mL (≈ 65.1 µM). In the case of `COc1cccc(CNC(=O)[C@@]2(C)NC(=O)[C@H](CC(C)C)N(O)C2=O)c1` (racemic) [Example 29, (3RS,6SR)-1-hydroxy-6-isobutyl-3-[N-(3-methoxybenzyl)]carbamoyl-3-methylpiperazine-2,5-dione], the IC50 in assay [1] stood at 2 µg/mL; in assay [2] it was 3 µg/mL (≈ 8.26 µM); in assay [3], 5 µg/mL (≈ 13.8 µM). In the case of `CC(C)C[C@@H]1C(=O)N[C@@H](Cc2ccc(O)cc2)C(=O)N1O` [Example 11], half-maximal inhibition in assay [3] (IC50) required 6 µg/mL (≈ 20.5 µM). In assay [3], `O=C1N[C@@H](Cc2ccccc2)C(=O)N(O)[C@@H]1Cc1c[nH]c2ccccc12` [Example 50] returned an IC50 of less than 3 µg/mL.

As to `COc1cccc(CNC(=O)[C@]2(Cc3ccccc3)NC(=O)[C@@H](CC(C)C)N(O)C2=O)c1` (relative stereo) [Example 28], the IC50 in assay [1] was found to be 3 µg/mL; in assay [2], 3 µg/mL (≈ 6.83 µM).

Turning to `CCOC(=O)[C@H]1NC(=O)[C@@H](Cc2c[nH]c3ccccc23)N(O)C1=O` (relative stereo) [Example 55], the IC50 in assay [3] came out at 3 µg/mL (≈ 9.05 µM).

Compound `COc1cc(C[C@@H]2NC(=O)[C@H](CC(C)C)N(O)C2=O)cc(OC)c1O` (relative stereo) [Example 17] showed an IC50 in assay [3] of less than 3 µg/mL.

For the compound `CC(C)C[C@H]1C(=O)N[C@](Cc2ccccc2)(C(=O)Nc2nc3ccccc3s2)C(=O)N1O` (racemic) [Example 27, (3RS,6SR)-3-(benzothiazol-2-yl)carbamoyl-3-benzyl-1-hydroxy-6-isobutylpiperazine-2,5-dione], the IC50 in assay [1] is 3 µg/mL; in assay [2], 0.25 µg/mL (≈ 0.552 µM). For the compound `O=C1N[C@@H](COCc2ccccc2)C(=O)N(O)[C@H]1Cc1c[nH]c2ccccc12` [Example 53], the IC50 in assay [2] stood at 30 µg/mL (≈ 79.1 µM). In the case of `O=C1N[C@@H](COCc2ccccc2)C(=O)N(O)[C@@H]1Cc1c[nH]c2ccccc12` [Example 54], the IC50 in assay [3] came out at 3 µg/mL (≈ 7.91 µM).
